This passage reports IC50 results from patent publication US12336981B2, “Compounds and compositions for the inhibition of NAMPT” (Valo Health, Inc., priority 2010, dated 2025).

In assay [1] the test system is A2780 cells. The assay is described as follows: In-vitro cell proliferation assay (SRB), A2780 cells. In kind it is cell-based. As to conditions: Homo sapiens, A2780, 72 h, A2780 cells, 72 hours, read-out: A2780 IC50. An outline of the steps: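 Cells were plated overnight at 37° C., 5% CO2, then exposed to serially diluted compounds (0.1% DMSO final) for 72 hours. Viable cells were measured by sulforhodamine B staining after TCA fixation, read at 570 nm; media-only background was subtracted before % inhibition was calculated.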

Assay [2] addresses T1, NAMPT (Homo sapiens, UniProt P43490).
T1 construct: His tag; host or cells: E. coli
Briefly: Biochemical inhibition assay: NAMPT enzymatic reaction, NMN quantified by mass spectrometry. As to conditions: NAMPT enzymatic reaction; read-out: Biochem IC50. An outline of the steps:
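Inhibition of E. coli-expressed His-tagged human NAMPT, measured as NMN formation by mass spectrometry after a 30 min room-temperature reaction containing 1 μM NAM, 100 μM PRPP and 2.5 mM ATP.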

Read-outs that look alike come from different tables or passages of the source.

T1 sequence (P43490 whole entry): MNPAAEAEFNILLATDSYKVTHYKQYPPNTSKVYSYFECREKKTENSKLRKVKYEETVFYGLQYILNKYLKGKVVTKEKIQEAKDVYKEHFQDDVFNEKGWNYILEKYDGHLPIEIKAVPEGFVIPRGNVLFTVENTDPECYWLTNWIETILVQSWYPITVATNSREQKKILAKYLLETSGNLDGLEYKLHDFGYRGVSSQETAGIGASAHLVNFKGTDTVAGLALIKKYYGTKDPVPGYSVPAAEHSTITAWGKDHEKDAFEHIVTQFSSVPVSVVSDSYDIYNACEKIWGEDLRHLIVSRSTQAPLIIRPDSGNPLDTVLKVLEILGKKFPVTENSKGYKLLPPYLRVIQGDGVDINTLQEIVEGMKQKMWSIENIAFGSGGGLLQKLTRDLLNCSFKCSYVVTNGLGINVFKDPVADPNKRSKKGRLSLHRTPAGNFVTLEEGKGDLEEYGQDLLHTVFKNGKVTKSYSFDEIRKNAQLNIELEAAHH

As for `N#Cc1cccc(S(=O)(=O)c2ccc(CNC(=O)c3cc4ccncc4o3)cc2)c1` [N-({4-[(3-cyanobenzene)sulfonyl]phenyl}methyl)furo[2,3-c]pyridine-2-carboxamide], the IC50 in assay [1] (SRB) amounted to 12.6 nM; in assay [2] it was 15.4 nM.
Taken in the same sequence, the figures for `CCOc1cc(S(=O)(=O)c2ccc(CNC(=O)c3cnc4[nH]ncc4c3)cc2)ccc1F` [N-({4-[(3-ethoxy-4-fluorobenzene)sulfonyl]phenyl}methyl)-1H-pyrazolo[3,4-b]pyridine-5-carboxamide] were 12 nM and 26.1 nM.
On to `CCOc1cc(S(=O)(=O)c2ccc(CNC(=O)c3cc4ccncc4o3)cc2)ccc1F` [N-({4-[(3-ethoxy-4-fluorobenzene)sulfonyl]phenyl}methyl)furo[2,3-c]pyridine-2-carboxamide], for which the IC50 came to 7.2 nM in assay [1] (SRB) and 11 nM in assay [2].
Taken in the same sequence, the figures for `CCOc1cc(S(=O)(=O)c2ccc(CNC(=O)c3cnc4nccn4c3)cc2)ccc1F` [N-({4-[(3-ethoxy-4-fluorobenzene)sulfonyl]phenyl}methyl)imidazo[1,2-a]pyrimidine-6-carboxamide] were 7.8 nM and 0.3 nM.
Consider `CCOc1cccc(S(=O)(=O)c2ccc(CNC(=O)c3cc4cnccc4[nH]3)cc2)c1` [N-({4-[(3-ethoxybenzene)sulfonyl]phenyl}methyl)-1H-pyrrolo[3,2-c]pyridine-2-carboxamide], for which the IC50 in assay [1] (SRB) worked out at 3.5 nM; in assay [2] it was 7.7 nM.
Taken in the same sequence, the figures for `CCOc1cccc(S(=O)(=O)c2ccc(CNC(=O)c3cc4ccncc4o3)cc2)c1` [N-({4-[(3-ethoxybenzene)sulfonyl]phenyl}methyl)furo[2,3-c]pyridine-2-carboxamide] were 11 nM and 6.8 nM.
`CCc1cccc(S(=O)(=O)c2ccc(CNC(=O)c3cc4ccncc4o3)cc2)c1` [N-({4-[(3-ethylbenzene)sulfonyl]phenyl}methyl)furo[2,3-c]pyridine-2-carboxamide]: the IC50 in assay [1] (SRB) is 6.5 nM; in assay [2], 8.7 nM.
Taken in the same sequence, the figures for `CCc1cccc(S(=O)(=O)c2ccc(CNC(=O)c3ccc4nccn4c3)cc2)c1` [N-({4-[(3-ethylbenzene)sulfonyl]phenyl}methyl)imidazo[1,2-a]pyridine-6-carboxamide] were 3.23 nM and 4.83 nM.
Consider `CCc1cccc(S(=O)(=O)c2ccc(CNC(=O)c3cc4ccncc4s3)cc2)c1` [N-({4-[(3-ethylbenzene)sulfonyl]phenyl}methyl)thieno[2,3-c]pyridine-2-carboxamide], for which the IC50 came to 2.7 nM in assay [1] (SRB assay) and 6 nM in assay [2].
As to `COc1c(F)cccc1S(=O)(=O)c1ccc(CNC(=O)c2cnc3[nH]ncc3c2)cc1` [N-({4-[(3-fluoro-2-methoxybenzene)sulfonyl]phenyl}methyl)-1H-pyrazolo[3,4-b]pyridine-5-carboxamide], the IC50 in assay [1] (SRB) is 100 to 1000 nM; in assay [2], 121 nM.
The matching figures for `COc1c(F)cccc1S(=O)(=O)c1ccc(CNC(=O)c2ccc3nccn3c2)cc1` [N-({4-[(3-fluoro-2-methoxybenzene)sulfonyl]phenyl}methyl)imidazo[1,2-a]pyridine-6-carboxamide]: 65 nM and 76.9 nM.
Regarding `Cc1c(F)cccc1S(=O)(=O)c1ccc(CNC(=O)c2cnc3[nH]ncc3c2)cc1` [N-({4-[(3-fluoro-2-methylbenzene)sulfonyl]phenyl}methyl)-1H-pyrazolo[3,4-b]pyridine-5-carboxamide], the IC50 in assay [1] (SRB) stood at 71.8 nM; in assay [2] it was 46.9 nM.
The matching figures for `COc1ccc(S(=O)(=O)c2ccc(CNC(=O)c3cnc4[nH]ncc4c3)cc2)cc1F` [N-({4-[(3-fluoro-4-methoxybenzene)sulfonyl]phenyl}methyl)-1H-pyrazolo[3,4-b]pyridine-5-carboxamide]: 6 nM and 43 nM.
`COc1ccc(S(=O)(=O)c2ccc(CNC(=O)c3cc4cnccc4[nH]3)cc2)cc1F` [N-({4-[(3-fluoro-4-methoxybenzene)sulfonyl]phenyl}methyl)-1H-pyrrolo[3,2-c]pyridine-2-carboxamide]: the values for the IC50 in assay [1] (SRB assay) and in assay [2] were 4 nM and 5 nM, respectively.
`COc1ccc(S(=O)(=O)c2ccc(CNC(=O)c3ccc4nccn4c3)cc2)cc1F` [N-({4-[(3-fluoro-4-methoxybenzene)sulfonyl]phenyl}methyl)imidazo[1,2-a]pyridine-6-carboxamide]: the values for the IC50 in assay [1] (SRB) and in assay [2] were 2.89 nM and 5.95 nM, respectively.
With `COc1ccc(S(=O)(=O)c2ccc(CNC(=O)c3cnc4nccn4c3)cc2)cc1F` [N-({4-[(3-fluoro-4-methoxybenzene)sulfonyl]phenyl}methyl)imidazo[1,2-a]pyrimidine-6-carboxamide], the half-maximal inhibitory concentration (IC50) in assay [1] (SRB) is 8.3 nM; in assay [2] it was 1.7 nM.
Regarding `COc1ccc(S(=O)(=O)c2ccc(CNC(=O)c3cc4ccncc4s3)cc2)cc1F` [N-({4-[(3-fluoro-4-methoxybenzene)sulfonyl]phenyl}methyl)thieno[2,3-c]pyridine-2-carboxamide], the IC50 came out at 2.5 nM in assay [1] (SRB assay) and 5 nM in assay [2].
The matching figures for `Cc1ccc(S(=O)(=O)c2ccc(CNC(=O)c3cc4cnccc4[nH]3)cc2)cc1F` [N-({4-[(3-fluoro-4-methylbenzene)sulfonyl]phenyl}methyl)-1H-pyrrolo[3,2-c]pyridine-2-carboxamide]: 6 nM and 8 nM.
In the case of `Cc1ccc(S(=O)(=O)c2ccc(CNC(=O)c3ccc4nccn4c3)cc2)cc1F` [N-({4-[(3-fluoro-4-methylbenzene)sulfonyl]phenyl}methyl)imidazo[1,2-a]pyridine-6-carboxamide], the IC50 in assay [1] (SRB) is 3.78 nM; in assay [2] it was 13.3 nM.
On to `Cc1ccc(S(=O)(=O)c2ccc(CNC(=O)c3cc4ccncc4s3)cc2)cc1F` [N-({4-[(3-fluoro-4-methylbenzene)sulfonyl]phenyl}methyl)thieno[2,3-c]pyridine-2-carboxamide], for which the concentration for half-maximal inhibition (IC50) in assay [1] (SRB assay) worked out at 2.8 nM; in assay [2], 3 nM.
For `CCCOc1ccc(S(=O)(=O)c2ccc(CNC(=O)c3cnc4[nH]ncc4c3)cc2)cc1F` [N-({4-[(3-fluoro-4-propoxybenzene)sulfonyl]phenyl}methyl)-1H-pyrazolo[3,4-b]pyridine-5-carboxamide], the values for the IC50 in assay [1] (SRB) and in assay [2] were 6.5 nM and 11.6 nM, respectively.
The matching figures for `COc1cc(F)cc(S(=O)(=O)c2ccc(CNC(=O)c3cc4ccncc4o3)cc2)c1` [N-({4-[(3-fluoro-5-methoxybenzene)sulfonyl]phenyl}methyl)furo[2,3-c]pyridine-2-carboxamide]: 3.3 nM and 17.4 nM.
The matching figures for `Cc1cc(F)cc(S(=O)(=O)c2ccc(CNC(=O)c3ccc4nccn4c3)cc2)c1` [N-({4-[(3-fluoro-5-methylbenzene)sulfonyl]phenyl}methyl)imidazo[1,2-a]pyridine-6-carboxamide]: 0.6 nM and 2.7 nM.
Turning to `O=C(NCc1ccc(S(=O)(=O)c2cccc(F)c2)cc1)c1cc2cnccc2[nH]1` [N-({4-[(3-fluorobenzene)sulfonyl]phenyl}methyl)-1H-pyrrolo[3,2-c]pyridine-2-carboxamide], the IC50 in assay [1] (SRB assay) came out at 10 nM; in assay [2], 9 nM.
In the case of `O=C(NCc1ccc(S(=O)(=O)c2cccc(F)c2)cc1)c1cc2ccncc2o1` [N-({4-[(3-fluorobenzene)sulfonyl]phenyl}methyl)furo[2,3-c]pyridine-2-carboxamide], the values for the IC50 in assay [1] (SRB) and in assay [2] were 14.5 nM and 5.8 nM, respectively.
The matching figures for `O=C(NCc1ccc(S(=O)(=O)c2cccc(F)c2)cc1)c1ccc2nccn2c1` [N-({4-[(3-fluorobenzene)sulfonyl]phenyl}methyl)imidazo[1,2-a]pyridine-6-carboxamide]: 12.2 nM and 22.1 nM.
As to `O=C(NCc1ccc(S(=O)(=O)c2cccc(F)c2)cc1)c1cc2ccncc2s1` [N-({4-[(3-fluorobenzene)sulfonyl]phenyl}methyl)thieno[2,3-c]pyridine-2-carboxamide], the IC50 in assay [1] (SRB assay) was 3.3 nM; in assay [2], 3 nM.
Taken in the same sequence, the figures for `COc1cccc(NS(=O)(=O)c2ccc(CNC(=O)c3cc4cnccc4[nH]3)cc2)c1C` [N-({4-[(3-methoxy-2-methylphenyl)sulfamoyl]phenyl}methyl)-1H-pyrrolo[3,2-c]pyridine-2-carboxamide] were 6 nM and 30 nM.
With `COc1cc(S(=O)(=O)c2ccc(CNC(=O)c3cnc4[nH]ncc4c3)cc2)ccc1C` [N-({4-[(3-methoxy-4-methylbenzene)sulfonyl]phenyl}methyl)-1H-pyrazolo[3,4-b]pyridine-5-carboxamide], the IC50 is 3.4 nM in assay [1] (SRB) and 3.6 nM in assay [2].
Take `COc1cccc(S(=O)(=O)c2ccc(CNC(=O)c3cc4cnccc4[nH]3)cc2)c1` [N-({4-[(3-methoxybenzene)sulfonyl]phenyl}methyl)-1H-pyrrolo[3,2-c]pyridine-2-carboxamide]: the IC50 in assay [1] (SRB assay) was determined as 4 nM; in assay [2] it was 7 nM.
In the case of `COc1cccc(S(=O)(=O)c2ccc(CNC(=O)c3ccc4nccn4c3)cc2)c1` [N-({4-[(3-methoxybenzene)sulfonyl]phenyl}methyl)imidazo[1,2-a]pyridine-6-carboxamide], the IC50 in assay [1] (SRB) came out at 2.45 nM; in assay [2] it was 4.97 nM.
With `COc1cccc(S(=O)(=O)c2ccc(CNC(=O)c3cnc4nccn4c3)cc2)c1` [N-({4-[(3-methoxybenzene)sulfonyl]phenyl}methyl)imidazo[1,2-a]pyrimidine-6-carboxamide], the IC50 worked out at 12.4 nM in assay [1] (SRB) and 2 nM in assay [2].
With `COc1cccc(S(=O)(=O)c2ccc(CNC(=O)c3cc4ccncc4s3)cc2)c1` [N-({4-[(3-methoxybenzene)sulfonyl]phenyl}methyl)thieno[2,3-c]pyridine-2-carboxamide], the IC50 in assay [1] (SRB assay) came out at 2.6 nM; in assay [2], 5 nM.

The term IC50 denotes the concentration needed to halve the response being measured.
